# Columns and labels:
# [1] = target: T1, Her3 (Homo sapiens, UniProt P21860); test: Her3 protein degradation by Western blot (immunoblotting); type: cell-based; design: endogenous in cells; host or cells: PC9-GR4; Ovacar 8; key: +: Her3 protein was degraded; −: Her3 protein was not degraded; details: PC9-GR4 or Ovacar 8 cell lines, 2 μM, 4 hours and 8 hours
# Protocol: Cells are seeded at the desired density the day before treatment starts with bifunctional compounds of the application at various concentration. After 4 to 12 hrs, cells are washed with buffer and lysed. The lysates are centrifuged and the supernatant is collected. Protein concentrations are measured using a protein assay kit, such as the BCA protein assay kit, Pierce, catalog number 23225) and normalized. Samples are run on a SDS-PAGE gel, and transferred to a PVDF membrane. The PVDF membrane is probed with the appropriate antibody.
# Her3 protein degradation was assessed via Western blots after treatment of PC9-GR4 cell lines or Ovacar 8 cell lines with 2 μM of representative compounds for 4 hours and 8 hours.
# Cells were seeded at a density of 4×10̂5 per 6 cm plate the day before treatment started with representative compounds of the application at the indicated concentration. After 4 to 12 hrs, cells were washed with phosphate-buffered saline. Lysis buffer included 50 mM Tris-HCl, […], 150 mM NaCl, 1% NP-40, and 5 mM EDTA, pH 7.4+/−0.2, Roche PhosSTOP phosphatase inhibitor cocktail tablets and Roche Complete Protease inhibitor cocktail tablets. Cell lysis was accomplished by addition of lysis buffer for 5-10 min on ice. Lysates were centrifuged in a microcentrifuge at 14,000 r.p.m. for 15 min at 4° C., and the supernatant was collected. Protein concentrations were measured using BCA protein assay kit (Pierce, catalog number 23225) and normalized. Samples were run on a 4%-12% SDS-PAGE gel at 120 V. After transfer, the PVDF membrane was probed with anti-Her3 antibody, Santa Cruz, catalog number sc-285 at 1:1000 dilution.
# [2] = target: T1, Her3; test: LanthaScreen Eu kinase binding assay; design: purchased Life Technologies; details: read-out: Binding affinities (IC50)
# Protocol: Lantha screening is performed by following the method reported in Nature Chemical Biology, 10, 1006-1012 (2014).
# Binding affinities (IC 50) of representative compounds were measured by the Life Technologies LanthaScreen Eu kinase binding assay, which was previously reported (Xie T. et al., Nat. Chew. Biol. 2014, 10, 1006-1012).
# Lantha screening was performed by following the method reported in Nature Chemical Biology, 10, 1006-1012 (2014).
# [3] = tested on: 826-GR6; test: Anti-proliferation assay (MTS cell viability); type: cell-based; details: 72 h, 826-GR6 cells, 3 d incubation, read-out: Cell lines (EC50, μM) 826-GR6
# Protocol: Cells are seeded and incubated for 3 d after bifunctional compounds of the application are added. Cell viability is measured via MTS Assay. This assay uses a colorimetric method to determine the number of viable cells based on the bioreduction of MTS by cells to a formazan product that is soluble in cell culture medium and can be detected spectrophotometrically. In a typical experiment, the supernatant is removed and replaced by 100 μl of RPMI media supplemented with MTS reagent and PMS. The plates are measured with Perkin Elmer EnVision after reaching an optical density (OD) of 1.0-2.0 at a wavelength of 490 nm. The cell numbers are normalized compared to DMSO control, and the EC50 values are calculated using GraphPad Prism.
# Five cell lines, PC9-GR4, 826-GR6, Ovacar 8, A549, and Ovacar 5 were grown and treated with representative compounds. Viability of the cells after the treatment was assessed by MTS assay.
# The anti-proliferation assay was carried out using 96-well clear bottom plates. […] Cell viability was measured via MTS Assay. This assay uses a colorimetric method to determine the number of viable cells based on the bioreduction of MTS by cells to a formazan product that is soluble in cell culture medium and can be detected spectrophotometrically. […] The plates were measured with Perkin Elmer EnVision after reaching an optical density (OD) of 1.0-2.0 at a wavelength of 490 nm. […]
# T1 sequence (P21860 20-1342): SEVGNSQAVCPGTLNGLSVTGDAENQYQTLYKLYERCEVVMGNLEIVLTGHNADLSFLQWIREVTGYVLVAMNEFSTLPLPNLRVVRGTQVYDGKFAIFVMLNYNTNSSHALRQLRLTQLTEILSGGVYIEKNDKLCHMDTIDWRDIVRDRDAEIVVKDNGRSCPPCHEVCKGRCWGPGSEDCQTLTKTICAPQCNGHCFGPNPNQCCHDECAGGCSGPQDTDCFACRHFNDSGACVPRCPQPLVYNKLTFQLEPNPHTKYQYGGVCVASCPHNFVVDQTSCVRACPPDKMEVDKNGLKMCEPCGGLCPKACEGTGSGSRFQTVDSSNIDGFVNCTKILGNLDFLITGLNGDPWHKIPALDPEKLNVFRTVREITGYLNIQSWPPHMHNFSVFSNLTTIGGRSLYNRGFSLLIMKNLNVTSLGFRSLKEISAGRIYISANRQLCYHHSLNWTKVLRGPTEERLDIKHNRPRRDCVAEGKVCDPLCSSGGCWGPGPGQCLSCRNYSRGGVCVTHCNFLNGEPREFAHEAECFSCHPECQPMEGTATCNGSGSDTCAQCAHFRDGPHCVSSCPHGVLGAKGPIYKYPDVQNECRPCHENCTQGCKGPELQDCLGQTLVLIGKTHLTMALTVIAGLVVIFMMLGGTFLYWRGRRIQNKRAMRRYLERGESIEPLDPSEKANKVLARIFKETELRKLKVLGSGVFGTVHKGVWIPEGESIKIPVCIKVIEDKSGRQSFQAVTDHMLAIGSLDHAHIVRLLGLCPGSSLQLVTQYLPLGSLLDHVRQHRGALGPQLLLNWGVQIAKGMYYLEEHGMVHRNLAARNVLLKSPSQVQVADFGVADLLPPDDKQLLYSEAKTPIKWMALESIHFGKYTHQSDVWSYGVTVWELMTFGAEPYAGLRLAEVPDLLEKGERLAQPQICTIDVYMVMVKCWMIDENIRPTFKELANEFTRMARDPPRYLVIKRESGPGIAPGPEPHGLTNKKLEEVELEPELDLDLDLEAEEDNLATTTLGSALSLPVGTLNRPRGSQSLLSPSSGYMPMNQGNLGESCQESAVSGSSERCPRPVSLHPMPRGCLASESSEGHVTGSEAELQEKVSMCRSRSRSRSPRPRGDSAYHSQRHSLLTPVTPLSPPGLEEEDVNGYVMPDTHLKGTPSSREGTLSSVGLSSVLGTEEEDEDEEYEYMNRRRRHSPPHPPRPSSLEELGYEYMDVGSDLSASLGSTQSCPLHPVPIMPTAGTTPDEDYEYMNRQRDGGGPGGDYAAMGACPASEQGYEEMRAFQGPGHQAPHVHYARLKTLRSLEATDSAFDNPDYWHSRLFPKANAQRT
Compound,Her3 degradation [1],IC50 [2] [nM],EC50 [3] [µM]
CCOc1cc2ncc(C#N)c(Nc3ccc(OCc4ccccn4)c(Cl)c3)c2cc1NC(=O)CCOCCOCCOCCNc1cccc2c1C(=O)N(C1CCC(=O)NC1=O)C2=O (stereo not drawn) [Compound CY4],−,,
CCOc1cc2ncc(C#N)c(Nc3ccc(OCc4ccccn4)c(Cl)c3)c2cc1NC(=O)CCOCCOCCOCCOCCOCCNc1cccc2c1C(=O)N(C1CCC(=O)NC1=O)C2=O (stereo not drawn) [Compound CY5],−,,
CCOc1cc2ncc(C#N)c(Nc3ccc(OCc4ccccn4)c(Cl)c3)c2cc1NC(=O)CCOCCOCCNc1cccc2c1C(=O)N(C1CCC(=O)NC1=O)C2=O (stereo not drawn) [Compound CY3],−,,
COc1cc(Nc2c(C#N)cnc3cc(OCCCN4CCN(C(=O)CCCNC(=O)COc5cccc6c5C(=O)N(C5CCC(=O)NC5=O)C6=O)CC4)c(OC)cc23)c(Cl)cc1Cl (stereo not drawn) [Compound CY2],−,< 10,
COc1cc(Nc2c(C#N)cnc3cc(OCCCN4CCN(CC(=O)NCCOCCOCCOCCNC(=O)COc5cccc6c5C(=O)N(C5CCC(=O)NC5=O)C6=O)CC4)c(OC)cc23)c(Cl)cc1Cl (stereo not drawn) [Compound CY1],−,< 10,

# More lines, main results first:
Her3 degradation [1],IC50 [2] [nM],Compound,EC50 [3] [µM]
−,,COc1cc2ncnc(Nc3cccc(Cl)c3F)c2cc1OC1CCN(CC(=O)NCCOCCOCCNc2cccc3c2C(=O)N(C2CCC(=O)NC2=O)C3=O)CC1 (stereo not drawn) [Compound CY10],
−,< 10,COc1cc(Nc2c(C#N)cnc3cc(OCCCN4CCN(CCOCCOCCOCCNc5cccc6c5C(=O)N(C5CCC(=O)NC5=O)C6=O)CC4)c(OC)cc23)c(Cl)cc1Cl (stereo not drawn) [Compound CY7],5 to 15
−,< 10,COc1cc(Nc2c(C#N)cnc3cc(OCCCN4CCN(CCOCCOCCNc5cccc6c5C(=O)N(C5CCC(=O)NC5=O)C6=O)CC4)c(OC)cc23)c(Cl)cc1Cl (stereo not drawn) [Compound CY6],5 to 15
−,,COc1cc(Nc2c(C#N)cnc3cc(OCCCOCCOCCOCCNc4cccc5c4C(=O)N(C4CCC(=O)NC4=O)C5=O)c(OC)cc23)c(Cl)cc1Cl (stereo not drawn) [Compound CY8],
−,,COc1cc2ncnc(Nc3cccc(Cl)c3F)c2cc1OC1CCN(CC(=O)NCCOCCOCCOCCNc2cccc3c2C(=O)N(C2CCC(=O)NC2=O)C3=O)CC1 (stereo not drawn) [Compound CY11],
+,10 to 100,COc1cc(Nc2c(C#N)cnc3cc(OCCCOCCOCCOCCOCCNc4cccc5c4C(=O)N(C4CCC(=O)NC4=O)C5=O)c(OC)cc23)c(Cl)cc1Cl (stereo not drawn) [Compound CY9],
